Data on nine compounds can be found in patent US9597318B2, “2-oxothiazole compounds and method of using same for chronic inflammatory disorders” (Avexxin AS, priority 2009, dated 2017).

SMILES strings stand for the structures. Where two headings read alike, the source gives them in different places.

One experiment addresses group IVa PLA2 (cPLA2) (Homo sapiens (Human), UniProt P47712). The experiment can be described thus: In vitro cPLA2 enzyme activity assay. The class given is biochemical. The protocol: Some of the compounds above were tested using an in vitro cPLA2 enzyme activity assay.
Assay for cPLA2 activity was performed by the use of sonicated vesicles of 1-palmitoyl-2-arachidonoyl-sn-glycerol-3-phosphorylcholine (100 μM) containing 100,000 cpm of 1-palmitoyl-2-[1 14C]arachidonoylsn-glycerol-3-phosphorylcholine in 100 mM Hepes, pH 7.5, 80 μM Ca2, 2 mM dithiothreitol, and 0.1 mg/ml BSA as described. Following a […] incubation at 37° C., the reaction was terminated (derived from Wijkander et al). The lower phase was separated by thin layer chromatography, and the spot corresponding to free [1-14C]arachidonic acid was visualized by digital imaging and quantified with a PhosphorImager (Fuji Instruments). The source of cPLA2 enzyme was recombinant overexpression of the human gene for group IVa PLA2 in baculovirus insect cell expression system, as described in Abdullah et al. • Wijkander, J., and Sundler, R. (1991) Eur. J. Biochem. 202, 873-880 • Abdullah, K., et al. (1995) Human cytosolic phospholipase A2 expressed in insect cells is extensively phosphorylated on Ser-505. Biochim Biophys Acta. 1995 May 11; 1244(1):157-64.

In another experiment the test system is PGE2. The experiment is described as follows: PGE2-assay (EIA kit detection). The class given is cell-based. As to the method: (§1) The Cell Culture SW982 model cell line at a confluent or spheroid state (Wada Y, 2005) was used since gene expression and generation of proinflammatory cytokines resemble RA-derived synovial fibroblast-like cells.
Samples and controls were slowly thawed and diluted (between 1:1 and 1:2500) in the standard diluent. The maximal dilution was 1:10 for one step. That is why several intermediate dilutions were prepared. In the beginning all values were determined from duplicates. After having minimized technical errors, samples were only analyzed as individuals. All further steps, except for some minor corrections, were performed according to the manufacturer's recommendations as can be found in the manual of the EIA kit. In order to optimize the results, the incubation time of the alkaline phosphatase substrate was prolonged by 15 minutes. During the incubation, the plates were kept in the dark. An example of the arrangements of the samples and controls is illustrated in the appendix. The read-out was carried out with a Multiscan plate reader (Ascent Labsystems) at wavelengths of 414 and 595 nm after 10 seconds shaking at 120 rpm. The corresponding software to obtain the data was the Ascent software for Multiscan, Version 2.4.1.
Data were processed using Microsoft Office Excel 2003 and SigmaPlot 10.0.

For the next experiment, the system named is SW982 cells. The experiment can be described thus: AA release assay in SW982 cells, IL-1B stimulation. The class given is cell-based. The settings on record: Homo sapiens. The protocol:
as §1
[…] […] IC50 is evaluated from dose-response inhibitions curves.

[1] abbreviates: recombinant human group IVa PLA2, vesicle assay, 37° C., read-out: Enzyme Assay IC 50.
The mark [2] stands for this setting: 1 h preincubation, IL-1B stimulation, time not given.
The mark [3] stands for this setting: read-out: cPLA2 in vitro assay IC50.

Chain of group IVa PLA2 (cPLA2) (P47712 whole entry): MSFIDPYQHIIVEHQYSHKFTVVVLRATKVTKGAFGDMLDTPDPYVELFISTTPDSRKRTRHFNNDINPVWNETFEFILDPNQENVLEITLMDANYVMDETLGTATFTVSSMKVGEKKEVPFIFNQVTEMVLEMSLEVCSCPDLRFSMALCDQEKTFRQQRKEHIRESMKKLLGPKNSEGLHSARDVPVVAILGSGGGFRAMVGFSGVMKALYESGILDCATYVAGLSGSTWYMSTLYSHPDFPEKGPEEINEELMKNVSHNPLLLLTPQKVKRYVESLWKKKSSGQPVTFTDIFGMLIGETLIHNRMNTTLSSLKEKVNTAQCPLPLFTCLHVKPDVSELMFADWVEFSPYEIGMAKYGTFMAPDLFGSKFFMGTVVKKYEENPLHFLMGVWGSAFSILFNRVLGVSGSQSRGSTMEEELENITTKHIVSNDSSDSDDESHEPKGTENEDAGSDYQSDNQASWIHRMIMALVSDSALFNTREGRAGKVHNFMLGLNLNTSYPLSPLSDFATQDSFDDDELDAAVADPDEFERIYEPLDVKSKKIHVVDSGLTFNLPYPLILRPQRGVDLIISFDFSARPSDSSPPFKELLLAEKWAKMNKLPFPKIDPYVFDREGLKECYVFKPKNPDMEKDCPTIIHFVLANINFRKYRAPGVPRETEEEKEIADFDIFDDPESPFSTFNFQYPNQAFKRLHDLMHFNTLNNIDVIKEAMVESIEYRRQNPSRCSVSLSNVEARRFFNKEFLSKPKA

For the compound `CCCCCCOc1ccc(CCCC(F)C(=O)c2nccs2)cc1` (stereo not drawn) [GK156, 2-Fluoro-5-(4-(hexyloxy)phenyl)-1-(thiazol-2-yl)pentan-1-one], at group IVa PLA2 (cPLA2) (setting [1]), the IC50 was found to be 3.7 µM.
Turning to `O=C(CCCCc1ccc2ccccc2c1)c1nc2ccccc2s1` [GK181], in the experiment on PGE2, at 10 µM the inhibition was 16.3% and the inhibition (commonly the drop in the measured response relative to a control, in per cent) at 30 µM is 22.5%. For the same compound, in the experiment on SW982 cells (setting [2]), the IC50 is 1.4 µM.
With `CCc1ccc(OCC(=O)c2nccs2)cc1` [GK185], the IC50 with SW982 cells (setting [2]) came out at 2.8 µM; at group IVa PLA2 (cPLA2) (setting [3]) it was 2 µM.
In the experiment with PGE2, `CCC(=O)c1nc(C(=O)O)cs1` [GK160] came in with an inhibition at 10 µM of 12% and an inhibition at 30 µM of 30%. The IC50 with SW982 cells (setting [2]) is 4.9 µM. Further, at group IVa PLA2 (cPLA2) (setting [3]), the IC50 amounted to 7.2 µM.
For `O=C(CCCCc1ccccc1)c1nccs1` [GK147, 5-Phenyl-1-(thiazol-2-yl)pentan-1-one], at group IVa PLA2 (cPLA2) (setting [1]), the IC50 stood at 3.05 µM.
Regarding `CCCCCCOc1ccc(CCC(=O)c2nccs2)cc1` [GK150, 3-(4-(Hexyloxy)phenyl)-1-(thiazol-2-yl)propan-1-one], in the experiment with SW982 cells (setting [2]), the IC50 was 5.8 µM.
In turn, `O=C(CCCCc1ccccc1)c1nc2ccccc2s1` [GK159] registered an inhibition at 0.3 µM with PGE2 (0.3 uM) of 76%. For the same compound, in the experiment with PGE2, the inhibition at 3 µM came to 18%, testing at 10 µM gave an inhibition of 23% and at 30 µM the inhibition was 10%. Further, the IC50 in the experiment with SW982 cells ((2 h)) is less than 2 µM. Besides, in the experiment on SW982 cells ((4 h)), the IC50 was approximately 25 µM. Moreover, the IC50 at group IVa PLA2 (cPLA2) (setting [3]) is more than 5 µM.
In the case of `CCOC(=O)c1csc(C(=O)CCCCc2ccccc2)n1` [GK152, Ethyl 2-(5-phenylpentanoyl)thiazole-4-carboxylate], at 0.1 µM the inhibition with PGE2 (0.1 uM) was 41%. In the experiment with PGE2, this compound came in with an inhibition at 3 µM of 38%, an inhibition at 10 µM of 30% and an inhibition at 30 µM of 31%. For the same compound, in the experiment on SW982 cells ((2 h)), the IC50 came out at 7.4 µM. In the experiment with SW982 cells ((4 h)), the IC50 is more than 25 µM. Also, the IC50 at group IVa PLA2 (cPLA2) (setting [3]) is more than 5 µM.
Turning to `CCCCCCCCc1ccc(OCCCC(=O)c2nccs2)cc1` [GK154, 4-(4-Octylphenoxy)-1-(thiazol-2-yl)butan-1-one], the IC50 at group IVa PLA2 (cPLA2) (setting [1]) is 3.65 µM.
